What was measured:
[1] = Table 3, representative compounds of Formula (III); cited from earlier work
1C1C7 cells [2] = experiment: 5′ UTR variants in 1C1C7 cells (Ex. 54); type: cell-based; conditions: CK IRES with 5′ UTR variants
Source text: This example describes modifications of circular RNAs by inserting 5′ UTR variants. […] 1C1C7 cells were transfected with the circular RNAs.

1C1C7 cells [3] = experiment: GLuc luminescence and functional stability by IRES in 1C1C7 cells (Ex. 8A); conditions: 24 hours
HEK293 cells = experiment: GLuc luminescence by IRES in HEK293 cells (Ex. 8A); conditions: 24 hours, 100 ng circularization reaction
1C1C7 cells [4] = experiment: Expression of anti-murine CD19 CAR by IRES variant in lipotransfected 1C1C7 cells (Ex. 41); type: cell-based; conditions: 24 hours after lipotransfection
Description: After 24 hours, 1C1C7 cells were incubated with His-tagged recombinant murine CD19 (Sino Biological) protein, then stained with a secondary anti-His antibody. Afterwards, the cells were analyzed via flow cytometry.

For `CCCCCCCCCCCCC(CCCCCCCCCC)C(=O)OCCCCCCN(CCCCO)CCCCOC(=O)C(CCCCCCCCCC)CCCCCCCCCCCC` (stereo not drawn) [III-27], the pKa [1] is listed as 5.77.

With “UTR2: 5′ UTR variant: canonical Kozak with "a 36-nucleotide unstructured/low GC spacer sequence" added (DNA AATAAGAGAGAAAAGAAGAGTAAGAAGAAATATAAGAGCCACC; expressed or natural sequence)” the “translation, luminescence” value (1C1C7 cells [2]) was “more effective”.

For “UTR3: 5′ UTR variant: "a higher-GC/structured spacer with a kozak sequence" (DNA CGAACTAGTATTCTTCTGGTCCCCACAGACTCAGAGAGAACCCGCCACC; expressed or natural sequence)”, the “translation, luminescence” value (1C1C7 cells [2]) was “did not show the same benefit”.

B1: Salivirus A SZ-1 (nucleic acid)
DNA: TCTGTCCTCACCCCATCTTCCCTTCTTTCCTGCACCGTTACGCTTACTCGCATGTGCATTGAGTGGTGCACGTGCTTGAACAAACAGCTACACTCACATGGGGGCGGGTTTTCCCGCCCTGCGGCCTCTCGCGAGGCCCACCCCTCCCCTTCCTCCCATAACTACAGTGCTTTGGTAGGTAAGCATCCTGATCCCCCGCGGAAGCTGCTCACGTGGCAACTGTGGGGACCCAGACAGGTTATCAAAGGCACCCGGTCTTTCCGCCTTCAGGAGTATCCCTGCTAGTGAATTCTAGTAGGGCTCTGCTTGGTGCCAACCTCCCCCAAATGCGCGCTGCGGGAGTGCTCTTCCCCAACTCACCCTAGTATCCTCTCATGTGTGTGCTTGGTCAGCATATCTGAGACGATGTTCCGCTGTCCCAGACCAGTCCAGTAATGGACGGGCCAGTGTGCGTAGTCGTCTTCCGGCTTGTCCGGCGCATGTTTGGTGAACCGGTGGGGTAAGGTTGGTGTGCCCAACGCCCGTACTTTGGTGATACCTCAAGACCACCCAGGAATGCCAGGGAGGTACCCCGCTTCACAGCGGGATCTGACCCTGGGCTAATTGTCTACGGTGGTTCTTCTTGCTTCCACTTCTTTCTACTGTTCATG
For B1, the luminescence in supernatant (1C1C7 cells [3]) was “produced high luminescence”.

B2: Crohivirus B IRES: one of the "selected IRES sequences" modified (e.g., truncated); "SEQ ID NOs: 348-389" (nucleic acid)
DNA: GTATAAGAGACAGGTGTTTGCCTTGTCTTCGGACTGGCATCTTGGGACCAACCCCCCTTTTCCCCAGCCATGGGTTAAATGGCAATAAAGGACGTAACAACTTTGTAACCATTAAGCTTTGTAATTTTGTAACCACTAAGCTTTGTGCACATAATGTAACCATCAAGCTTGTTAGTCCCAGCAGGAGGTTTGCATGCTTGTAGCCGAAATGGGGCTCGACCCCCCATAGTAGGATACTTGATTTTGCATTCCATTGTGGACCTGCAAACTCTACACATAGAGGCTTTGTCTTGCATCTAAACACCTGAGTACAGTGTGTACCTAGACCCTATAGTACGGGAGGACCGTTTGTTTCCTCAATAACCCTACATAATAGGCTAGGTGGGCATGCCCAATTTGCAAGATCCCAGACTGGGGGTCGGTCTGGGCAGGGTTAGATCCCTGTTAGCTACTGCCTGATAGGGTGGTGCTCAACCATGTGTAGTTTAAATTGAGCTGTTCATATACC
modifications: Crohivirus B
In the case of B2, the luminescence in supernatant (HEK293 cells) is reported as “produced the highest luminescence”.

B3: parabovirus: "IRES sourced from the indicated virus" in circular RNA encoding anti-murine CD19 CAR (nucleic acid, listed as Parabovirus sp.)
DNA: TGAACCGTTACGCACCACTCAGTTGGTGTTTGGTGGCACCAATGATGGAACAAAAGGCTACACCACTTGGGCTACGGCCCGCGCCACCTTGTGGCGCAAAGACATTAGAAGAATAGCATACCGCCCACTAGGGCCCTGCAGCCAGCAGGGTAACGGGCAAGCACTTCTGTCTCCCCGGTAGAACGGTATAGGCTGTACCCACGGCCGAAAACTGAACTATCGTTACCCGACTCCGTACTTCGCAAAGCTTAGTAGGAAACTGGAAAGTTCGAGTTATTGACCCGGAGTGTTCCCCCCACTCCAGAAACGCGTGATGAGGGTTGCCACCCCGACCATGGCGACATGGTGGGCATCCCTGCGCTGGCACGCGGCCTCTAAGAGGATAACTCGCTCCTACTGGTAACCGAAGAGCCCCGTGAGCTACGGTTTATTCCTCCGCCTCCCTGAATGCGGCTAATCCTAACCCATGAGCAGTTGCCATAGATCCATATGGTGGACTGTCGTAACGCGTAAGTTGTGGGCGGAACCGACTACTTTGGGATGGCGTGTTTCCTTGTTTTCTCCATTTGTTGTTGTATGGTGACAAGTTATAGATCTCGATCTATAGCGTTTCTTGAGAGATTTCCAAACATTTATTCAAGTCGTACAATTCTTGTGTTTAAGCAGTACAGTGTAAGG
With B3 the “expression of anti-mouse CD19 CAR” value (1C1C7 cells [4]) was “capable of driving expression”.
